Results from patent publication US12686682B2, “Indazole acetylene derivatives” (Hoffmann-La Roche Inc., priority 2020, dated 2026).

Molecular target: T1, Phospho EGFR LRCS (BaF3-LRCS cell line) (Homo sapiens, UniProt P00533, C797S/L858R)
T1 construct: host or cells: BaF3 (BaF3-LRCS), kept under puromycin selection
Test: HTRF Phospho EGFR LRCS Assay (Cellular)
Format: cell-based
Conditions: BaF3-LRCS cells, 4 hours incubation, HTRF phospho-EGFR readout
Procedure: HTRF Phospho EGFR LRCS Assay (Cellular)
BaF3-LRCS cell line were obtained from Crownbio (San Diego, CA, USA). Cells were maintained at 37° C., 5% C02 in RPMI ATCC (Gibco 31870)+2 mM Glutamine+0.5 μg/ml Puromycin supplemented with 10% fetal bovine serum (FBS) (Gibco).
Cells are transferred as above to Greiner Bio-One, Nr. 784-08 micro-titerplate at 20000 cells/well in 12.5 μl of growth medium/well after the plates had been pre-filled with 12.5 nl of DMSO solutions of the to be tested compounds (in dose response) or DMSO only. After spinning the plates at 300×g for 30 seconds the cells were incubated for 4 hours at 37 C, 5% C02, 95% humidity. The cells were lysed by adding to the compound mix 4 µl/well of the supplemented lysis buffer (Cis-bio, Phospho-EGFR HTRF kit, 64EG1PEH), followed by incubation for 30 min at room temperature with shaking (400 rpm). The plates were then frozen and stored overnight at −80° C. On the next day and after thawing the plates, 4 μl of a mixture of anti-Phospho-EGFR Cryptate and of anti-Phospho-EGFR-d2 antibody solutions prepared in the supplied detection buffer was added to each well. The lidded plates were then incubated for 4 h at room temperature before reading the fluorescence emission at 616 and 665 nm using an Envision reader (Perkin Elmer). Data was analyzed in similar fashion as above using the normalized ratio of the 665 to 616 signals multiplied by 10000.

T1 sequence (P00533 25-1210 C797S/L858R): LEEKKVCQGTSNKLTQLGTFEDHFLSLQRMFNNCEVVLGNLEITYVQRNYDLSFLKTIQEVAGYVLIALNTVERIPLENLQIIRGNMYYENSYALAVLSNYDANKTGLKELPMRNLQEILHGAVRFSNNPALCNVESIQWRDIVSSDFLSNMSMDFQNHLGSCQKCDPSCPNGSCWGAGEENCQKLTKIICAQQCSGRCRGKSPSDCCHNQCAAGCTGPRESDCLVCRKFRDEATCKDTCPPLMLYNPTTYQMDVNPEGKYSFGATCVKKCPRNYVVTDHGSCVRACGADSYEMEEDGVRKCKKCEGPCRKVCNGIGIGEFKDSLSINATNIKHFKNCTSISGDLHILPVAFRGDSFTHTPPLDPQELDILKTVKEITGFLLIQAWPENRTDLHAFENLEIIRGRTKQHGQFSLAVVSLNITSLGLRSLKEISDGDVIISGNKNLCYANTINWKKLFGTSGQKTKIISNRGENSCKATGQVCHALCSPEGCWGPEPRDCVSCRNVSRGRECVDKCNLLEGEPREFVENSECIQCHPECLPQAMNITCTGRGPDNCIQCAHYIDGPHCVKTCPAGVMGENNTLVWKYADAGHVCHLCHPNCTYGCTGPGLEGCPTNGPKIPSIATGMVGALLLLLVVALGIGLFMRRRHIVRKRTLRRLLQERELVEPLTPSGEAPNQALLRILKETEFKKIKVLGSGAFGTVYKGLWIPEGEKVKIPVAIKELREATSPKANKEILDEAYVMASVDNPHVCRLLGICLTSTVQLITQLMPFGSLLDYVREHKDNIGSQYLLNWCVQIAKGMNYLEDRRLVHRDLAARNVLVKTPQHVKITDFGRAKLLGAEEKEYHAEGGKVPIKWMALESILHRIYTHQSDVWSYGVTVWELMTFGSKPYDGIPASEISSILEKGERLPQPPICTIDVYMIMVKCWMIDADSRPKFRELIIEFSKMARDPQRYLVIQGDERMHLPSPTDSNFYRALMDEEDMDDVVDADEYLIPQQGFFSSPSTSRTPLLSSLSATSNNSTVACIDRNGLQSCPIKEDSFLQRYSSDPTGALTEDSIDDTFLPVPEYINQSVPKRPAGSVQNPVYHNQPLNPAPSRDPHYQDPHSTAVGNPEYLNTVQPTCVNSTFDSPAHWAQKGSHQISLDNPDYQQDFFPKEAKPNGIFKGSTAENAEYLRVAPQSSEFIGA

IC50 [nM] | Compound
22 | Cc1c(C#Cc2ccc(CN3CCC(CO)CC3)cc2)cc(C(F)F)c2cn(C(C(=O)Nc3nccs3)c3ncn4c3C[C@@H](F)C4)nc12 (stereo partly drawn) [Example 1, 2-[4-(Difluoromethyl)-6-[2-[4-[[4-(hydroxymethyl)-1-piperidyl]methyl]phenyl]ethynyl]-7-methyl-indazol-2-yl]-2-[(6R)-6-fluoro-6,7-dihydro-5H-pyrrolo[1,2-c]imidazol-1-yl]-N-thiazol-2-yl-acetamide]
23 | Cc1c(C#Cc2ccc(CN3CCC(CO)CC3)cc2)cc(C(F)F)c2cn(C(C(=O)Nc3nccs3)c3ncn4c3CCC4)nc12 (centres unmarked) [Example 2, 2-[4-(Difluoromethyl)-6-[2-[4-[[4-(hydroxymethyl)-1-piperidyl]methyl]phenyl]ethynyl]-7-methyl-indazol-2-yl]-2-(6,7-dihydro-5H-pyrrolo[1,2-c]imidazol-1-yl)-N-thiazol-2-yl-acetamide]
15 | Cc1c(C#Cc2ccc(CN3CCC(CO)CC3)cc2)cc(C(F)(F)F)c2cn(C(C(=O)Nc3nccs3)c3ncn4c3C[C@@H](F)C4)nc12 (stereo partly drawn) [Example 3, 2-[(6R)-6-Fluoro-6,7-dihydro-5H-pyrrolo[1,2-c]imidazol-1-yl]-2-[6-[2-[4-[[4-(hydroxymethyl)-1-piperidyl]methyl]phenyl]ethynyl]-7-methyl-4-(trifluoromethyl)indazol-2-yl]-N-thiazol-2-yl-acetamide]
9 | Cc1c(C#Cc2ccc(CN3CCC(CO)CC3)cc2)cc(C(F)(F)F)c2cn(C(C(=O)Nc3nccs3)c3ncn4c3CCC4)nc12 (centres unmarked) [Example 4, 2-(6,7-Dihydro-5H-pyrrolo[1,2-c]imidazol-1-yl)-2-[6-[2-[4-[[4-(hydroxymethyl)-1-piperidyl]methyl]phenyl]ethynyl]-7-methyl-4-(trifluoromethyl)indazol-2-yl]-N-thiazol-2-yl-acetamide]
11 | Cc1c(C#Cc2ccc(CN3CCC(CO)CC3)cc2)cc(C(F)F)c2cn(C(C(=O)Nc3nccs3)c3ncn4c3CCC4(C)C)nc12 (centres unmarked) [Example 5, 2-[4-(Difluoromethyl)-6-[2-[4-[[4-(hydroxymethyl)-1-piperidyl]methyl]phenyl]ethynyl]-7-methyl-indazol-2-yl]-2-(5,5-dimethyl-6,7-dihydropyrrolo[1,2-c]imidazol-1-yl)-N-thiazol-2-yl-acetamide]
10 | Cc1c(C#Cc2ccc(CN3CCC(CO)CC3)cc2)cc(C(F)F)c2cn(C(C(=O)Nc3nccs3)c3ncn4c3CCC43CC3)nc12 (centres unmarked) [Example 6]
11 | Cc1c(C#Cc2ccc(CN3CCC(CO)CC3)cc2)cc(C(F)(F)F)c2cn(C(C(=O)Nc3nccs3)c3ncn4c3CCC43CC3)nc12 (centres unmarked) [Example 7]
12 | Cc1c(C#Cc2ccc(CN3CCC(CO)CC3)cc2)cc(C(F)(F)F)c2cn(C(C(=O)Nc3nccs3)c3ncn4c3CCC4(C)C)nc12 (centres unmarked) [Example 8, 2-(5,5-Dimethyl-6,7-dihydropyrrolo[1,2-c]imidazol-1-yl)-2-[6-[2-[4-[[4-(hydroxymethyl)-1-piperidyl]methyl]phenyl]ethynyl]-7-methyl-4-(trifluoromethyl)indazol-2-yl]-N-thiazol-2-yl-acetamide]
